Where “and” joins values, the source holds several entries; their conditions need not be identical. Identical values can stand only once. Like-named read-outs stand apart in the source and are kept apart here.
What was measured:
CYP3A5 [1] = assay: CYP3A5 contribution to metabolism; assay type: in vitro ADME, human
[2] = Simcyp input; ref 42 (ertugliflozin), DrugBank 50 (dapagliflozin), DrugBank 49 (MFA); cited from earlier work
UGT1A9 [3] = molecular target: T1, UGT1A9 (Homo sapiens, UniProt O60656); assay: UGT1A9 contribution to metabolism; assay type: in vitro ADME
T1 sequence (O60656 26-530): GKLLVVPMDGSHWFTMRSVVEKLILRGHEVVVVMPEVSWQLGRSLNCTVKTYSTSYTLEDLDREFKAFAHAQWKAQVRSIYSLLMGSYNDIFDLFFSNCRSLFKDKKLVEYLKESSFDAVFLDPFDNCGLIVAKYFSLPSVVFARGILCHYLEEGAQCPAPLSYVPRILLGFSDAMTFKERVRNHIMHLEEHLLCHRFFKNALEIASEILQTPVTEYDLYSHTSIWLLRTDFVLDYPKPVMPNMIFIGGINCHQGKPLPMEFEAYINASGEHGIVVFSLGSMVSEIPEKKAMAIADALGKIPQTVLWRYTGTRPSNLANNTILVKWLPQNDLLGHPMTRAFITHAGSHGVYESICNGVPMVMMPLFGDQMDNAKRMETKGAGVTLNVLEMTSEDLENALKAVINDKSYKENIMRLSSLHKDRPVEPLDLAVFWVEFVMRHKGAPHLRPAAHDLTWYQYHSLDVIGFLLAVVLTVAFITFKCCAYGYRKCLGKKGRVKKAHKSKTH

[4] = Human ADME study with 14C-labelled drug: excretion and metabolite recovery; assay type: in vivo; settings: human ADME study (ertugliflozin ref 12, dapagliflozin ref 23)
UGT2B4/2B7 [5] = settings: in vitro UGT reaction phenotyping, assigned to UGT2B7 in model; cited from earlier work
Caco‐2 = settings: ref 17 (ertugliflozin), 46 (dapagliflozin); cited from earlier work
CYP2C8 [6] = settings: in vitro CYP reaction phenotyping, cited from earlier work
UGT1A9 [7] = molecular target: T1, UGT1A9; settings: in vitro UGT reaction phenotyping; cited from earlier work
[8] = cited from earlier work; for Observed AUCinf / Observed Cmax: geometric mean (%CV)
UGT = settings: ref 18 (ertugliflozin), 39 (dapagliflozin); cited from earlier work
[9] = blood/plasma ratio; ref 45 (ertugliflozin), 46 (dapagliflozin); cited from earlier work
CYP3A4 [10] = assay: CYP3A4 contribution to metabolism; assay type: in vitro ADME, human
CYP2C8 [11] = assay: CYP2C8 contribution to metabolism; assay type: in vitro ADME, human
CYP3A4 [12] = settings: in vitro CYP reaction phenotyping, cited from earlier work
UGT2B4/2B7 [13] = assay: UGT2B4/2B7 contribution to metabolism; assay type: in vitro ADME, human; settings: calculated from clinical ADME and reaction phenotyping data
[14] = tested on: UGT2B7 (UGT2B4/2B7 contribution assigned to UGT2B7); assay: UGT2B4/2B7 contribution to metabolism; assay type: in vitro ADME, human; settings: human
CYP3A5 [15] = settings: in vitro CYP reaction phenotyping, cited from earlier work
PBPK model = assay: PBPK model; design: species or system human
[16] = fraction unbound in plasma; ref 45 (ertugliflozin), 46 (dapagliflozin); cited from earlier work
[17] = human ADME study, ref 12 (ertugliflozin), 23 (dapagliflozin), cited from earlier work
[18] = retrospectively calculated from CLiv, CLr, CYP fm and reaction phenotyping
[19] = ertugliflozin single oral dose 0.5 mg
[20] = ertugliflozin single oral dose 2.5 mg
[21] = ertugliflozin single oral dose 10 mg
[22] = ertugliflozin single oral dose 30 mg
[23] = ertugliflozin single oral dose 100 mg
[24] = ertugliflozin single oral dose 300 mg
[25] = ertugliflozin multiple oral dose 5 mg once daily
[26] = ertugliflozin multiple oral dose 15 mg once daily
[27] = ertugliflozin single dose 0.1 mg administered intravenously
[28] = ertugliflozin single oral dose 15 mg

CCOc1ccc(Cc2cc([C@]34OC[C@](CO)(O3)[C@@H](O)[C@H](O)[C@H]4O)ccc2Cl)cc1 [Ertugliflozin, ertugliflozin]
fm,CYP3A5 observed (CYP3A5 [1]; fm,CYP × % contribution): 0.012 | CLint, CYP: CYP3A5 (CYP3A5 [1]; [18]): 0.006 µL/min/pmol | LogP [2]: 2.5 | fm,UGT1A9 observed (UGT1A9 [3]; calculated from clinical ADME and reaction phenotyping data): 0.70 | microsomal CLint (UGT1A9 [3]; human): 35 µL/min/mg | Fe observed (fraction excreted unchanged in urine) [4]: 0.02 | Relative contribution of UGT2B4/2B7 to glucuronidation (UGT2B4/2B7 [5]): 19% | Caco‐2 permeability coefficient (Caco‐2): 4.1 10^–6 cm/s | Contribution of CYP2C8 to oxidative metabolism (CYP2C8 [6]): 4% | Contribution of CYP2C8 to oxidative metabolism (CYP2C8 [6]; listed as ertugliflozin): 4% and 0–4% | Relative contribution of UGT1A9 to glucuronidation (UGT1A9 [7]): 81% | Vss ([8]; after i.v. administration, ref 15 (ertugliflozin), 38 (dapagliflozin)): 1.23 L/kg | Observed AUCinf [8, 19]: 45.7 (10) ng·h/mL | Observed Cmax [8, 19]: 7.23 (11) ng/mL | Observed AUCinf [8, 20]: 231 (22) ng·h/mL | Observed Cmax [8, 20]: 42.8 (21) ng/mL | Observed AUCinf [8, 21]: 909 (15) ng·h/mL | Observed Cmax [8, 21]: 182 (22) ng/mL | Observed AUCinf [8, 22]: 2810 (18) ng·h/mL | Observed Cmax [8, 22]: 545 (24) ng/mL | Observed AUCinf [8, 23]: 9610 (16) ng·h/mL | Observed Cmax [8, 23]: 1620 (16) ng/mL | Observed AUCinf [8, 24]: 26400 (16) ng·h/mL | Observed Cmax [8, 24]: 4330 (20) ng/mL | Fa ([8]; fraction absorbed, absolute bioavailability study): 1.0 | CLiv ([8]; intravenous plasma clearance, ref 15 (ertugliflozin), 38 (dapagliflozin)): 11.2 L/h | Share of systemic UGT clearance occurring in the liver (UGT): 90% | B/P ratio [9]: 0.66 | fm,CYP3A4 observed (CYP3A4 [10]; fm,CYP × % contribution): 0.103 | CLint, CYP: CYP3A4 (CYP3A4 [10]; [18]): 0.041 µL/min/pmol | fm,CYP2C8 observed (CYP2C8 [11]; fm,CYP × % contribution): 0.005 | CLint, CYP: CYP2C8 (CYP2C8 [11]; [18]): 0.011 µL/min/pmol | Contribution of CYP3A4 to oxidative metabolism (CYP3A4 [12]): 86% | Contribution of CYP3A4 to oxidative metabolism (CYP3A4 [12]; listed as ertugliflozin): 86% and 85–100% | fm,UGT2B7 observed (UGT2B4/2B7 [13]): 0.16 | microsomal CLint [14]: 8 µL/min/mg | Contribution of CYP3A5 to oxidative metabolism (CYP3A5 [15]): 10% | Contribution of CYP3A5 to oxidative metabolism (CYP3A5 [15]; listed as ertugliflozin): 10% and 0–10% | AUC predicted/ observed ratio (PBPK model; [25]): 1.03 | Cmax predicted/ observed ratio (PBPK model; [25]): 1.22 | AUC predicted/ observed ratio (PBPK model; [26]): 0.97 | Cmax predicted/ observed ratio (PBPK model; [26]): 1.04 | AUC predicted/ observed ratio (PBPK model; [27]): 1.08 | Cmax predicted/ observed ratio (PBPK model; [27]): 0.98 | AUC predicted/ observed ratio (PBPK model; [19]): 0.82 | Cmax predicted/ observed ratio (PBPK model; [19]): 1.16 | AUC predicted/ observed ratio (PBPK model; [20]): 0.81 | Cmax predicted/ observed ratio (PBPK model; [20]): 0.98 | AUC predicted/ observed ratio (PBPK model; [21]): 0.82 | Cmax predicted/ observed ratio (PBPK model; [21]): 0.92 | AUC predicted/ observed ratio (PBPK model; [28]): 0.81 | Cmax predicted/ observed ratio (PBPK model; [28]): 0.97 | AUC predicted/ observed ratio (PBPK model; [22]): 0.80 | Cmax predicted/ observed ratio (PBPK model; [22]): 0.92 | AUC predicted/ observed ratio (PBPK model; [23]): 0.78 | Cmax predicted/ observed ratio (PBPK model; [23]): 1.04 | AUC predicted/ observed ratio (PBPK model; [24]): 0.83 | Cmax predicted/ observed ratio (PBPK model; [24]): 1.13 | Fu,plasma [16]: 0.064 | Renal excretion of unchanged drug ([17]; % of dose): ~ 2% | Elimination by glucuronidation [17]: ~ 86% | Elimination by oxidation (converted to oxidative metabolites) [17]: ~ 12%

Reference: paper PMC7894401 (CPT: Pharmacometrics & Systems Pharmacology, 2020)
